Measured values taken from publication PMC11984905, “Chiral Switch of Gadopiclenol: New Standards in MRI Probes” (Advanced Science, 2025).

test: Stability and protonation constants of Cu(II)-complexes (spectrophotometry, pH-potentiometry); format: physicochemical; conditions: 0.15 M NaCl, 25 °C
Description: The stability constants of the Cu(II)‐complexes with rac‐L1, ent‐L1, rac‐L2 and ent‐L2 ligands were determined by spectrophotometry studying the Cu(II) – rac‐L1, Cu(II) – ent‐L1, Cu(II) – rac‐L2 and Cu(II) – ent‐L2 systems at the absorption band of Cu(II)‐complexes at [H^+] = 0.01–1.0 M in the wavelength range of 400–800 nm. The concentrations of CuCl2, rac‐L1, ent‐L1, rac‐L2 and ent‐L2 ligands were 0.002 M. The H^+ concentration in the samples was adjusted with the addition of calculated amounts of 3 M HCl. (I = [Na^+]+[H^+] = 0.15, [H^+]≤0.15 M). The samples were kept at 25 °C for a week. The absorbance values of the samples were determined at 11 wavelengths (575, 595, 615, 635, 655, 675, 695, 715, 735, 755, and 775 nm). For the calculations of the stability and protonation constants of the Cu(II)‐complexes, the molar absorptivities of CuCl2 and Cu(II)‐complexes were determined by recording the spectra of 1.0 × 10^−3, 1.5 × 10^−3, 2.0 × 10^−3, and 2.5 × 10^−3 M solutions of CuCl2 and Cu(II)‐complexes in the pH range of 1.7–7.5. The pH was adjusted by stepwise addition of concentrated NaOH or HCl solutions. The spectrophotometric measurements were made with a PerkinElmer Lambda 365 UV–vis spectrophotometer at 25 °C, using 1.0 cm cells.
The stability and protonation constants of Cu(II) complexes with rac-L1, ent-L1, rac-L2 and ent-L2 have been determined by spectrophotometry. The equilibrium reaction (Equation (S8)) has been studied in the [H^+] range of 0.01 – 1.0 M (the ionic strength was constant I=[Na^+]+[H^+]=0.15 in the samples [H^+]≤0.15 M), where the formation of Cu^2+, CuHx-yL and HxL species was assumed ([Cu(rac-L1)]^4- and [Cu(ent-L1)]^4-: x=6 and 7, y=4 and 5; [Cu(rac-L2)]^4- and [Cu(ent-L2)]^4-: x=3 and 4, y=1 and 2).
The protonation constants of Cu(II)-complexes with rac-L1, ent-L1, rac-L2 and ent-L2 have been determined by pH-potentiometric and spectrophotometric titrations of the complexes in the pH range 1.7 – 7.0. These studies reveal that [Cu(rac-L1)]^4- and [Cu(ent-L1)]^4- complexes can form mono-, di-, tri, tetra- and penta-protonated species via the protonation of all distant and two closer carboxylate groups of the pendant arms. Moreover, the pH potentiometric studies also indicate that the [Cu(rac-L2)]^- and [Cu(ent-L2)]^- complexes can form mono- and di-protonated species via the protonation of two carboxylate groups. […] Moreover, the maximum of the absorption band for the [Cu(H5L)]^+ species in Cu^2+ – ent-L1 system is also similar to that of [Cu(H2L)]^+ in Cu^2+ – ent-L2 system ([…], Figures S45 and S47). The maximum of the absorption band is shifted from 730 to 750 nm by the deprotonation of [Cu(H5L)]^+ and [Cu(H2L)]^+ via the formation of [Cu(H4L)] and [Cu(HL)] species in Cu^2+– rac-L1 and Cu^2+– rac-L2 systems (Figures S44 and S46).

Row | logK CuL | logKCuH2L | logKCuHL | logKCuH3L | logKCuH4L | logKCuH5L | SMILES
1 | 21.04 (5) | 2.58 (5) | 4.42 (4) | – | – | – | O=C(CCC(C(=O)O)N1CCN(C(CCC(=O)NCC(O)CO)C(=O)O)Cc2cccc(n2)CN(C(CCC(=O)NCC(O)CO)C(=O)O)CC1)NCC(O)CO (racemic) [rac‐L2]
2 | 23.26(4) | 4.80 (2) | 5.38 (3) | 4.28 (2) | 3.69 (2) | 2.33 (2) | O=C(O)CCC(C(=O)O)N1CCN(C(CCC(=O)O)C(=O)O)Cc2cccc(n2)CN(C(CCC(=O)O)C(=O)O)CC1 (racemic) [rac‐L1, 2,2’,2’’-[3,6,9,15-tetraazabicyclo[9.3.1]pentadeca-1(15),11,13-triene-3,6,9-triyl]tripentanedioic acid]
3 | 23.22 (6) | 4.72 (2) | 5.25 (2) | 4.11 (2) | 3.36 (2) | 1.31 (2) | O=C(O)CCC(C(=O)O)N1CCN(C(CCC(=O)O)C(=O)O)Cc2cccc(n2)CN(C(CCC(=O)O)C(=O)O)CC1 (stereo not drawn) [ent‐L1]
4 | 21.52 (4) | 1.44 (1) | 3.27 (1) | – | – | – | O=C(CCC(C(=O)O)N1CCN(C(CCC(=O)NCC(O)CO)C(=O)O)Cc2cccc(n2)CN(C(CCC(=O)NCC(O)CO)C(=O)O)CC1)NCC(O)CO (stereo not drawn) [ent‐L2]
